Laboratory results taken from patent publication US20260240832A1, “USE OF NITROXOLINE COMPOUND IN ENHANCING EFFECT OF ANTIBACTERIAL AGENT” (Jiangsu Yahong Meditech Co., Ltd., priority 2022, published 2026).
Read-outs that look alike come from different tables or passages of the source.

Assays:
[1] = system: drug-resistant Escherichia coli I (a strain resistant to carbapenem antibiotics); assay: Chessboard microbroth dilution MIC/FIC, compound A in combination with meropenem; format: cell-based; settings: for MIC: Escherichia coli, read-out: Meropenem MIC alone; for Meropenem MIC in combination: with compound A
From the text: (§1) This experiment is designed to determine the minimum inhibitory concentration (MIC) of compound A in combination with meropenem against drug-resistant Escherichia coli I (a strain resistant to carbapenem antibiotics) and drug-resistant Escherichia coli II (a strain resistant to fluoroquinolone antibiotics, non-fluoroquinolone antibiotics, aminoglycoside antibiotics, glycopeptide antibiotics and carbapenem antibiotics), and to calculate the fractional inhibitory concentration (FIC) index.
3 strains of drug-resistant Escherichia coli I, namely drug-resistant Escherichia coli 18-W09-093, drug-resistant Escherichia coli 18-W37-025, and drug-resistant Escherichia coli 18-W37-032, are provided by Shanghai Junji Medical Laboratory Co., Ltd. These 3 strains are all resistant to carbapenem antibiotics (e.g., meropenem).
(§2) According to the recommendation of the Clinical and Laboratory Standards Institute (CLSI), the microbroth dilution method designed by the chessboard method was used to determine the minimum inhibitory concentration (MIC) of compound A in combination with meropenem against the above strains, and the fractional inhibitory concentration (FIC) index was calculated.
(§3) Compound A was dissolved in dimethyl sulfoxide to obtain a stock solution I with a concentration of 1280 mg/L. The stock solution I was diluted to 512 mg/L with sterile water to obtain a gradient dilution first tube solution I. The gradient dilution first tube solution I was subjected to 1:1 gradient dilution with sterile water to obtain a working solution I with a gradient range of 512 to 0.25 mg/L.
(§4) Meropenem was dissolved in sterile water to obtain a stock solution II with a concentration of 5120 mg/L. The stock solution II was diluted to 1024 mg/L with sterile water to obtain a gradient dilution first tube solution II. The gradient dilution first tube solution II was subjected to 1:1 gradient dilution with sterile water to obtain a working solution II with a gradient range of 1024 to 0.5 mg/L.
(§5) According to the method in Example 1, a drug sensitive plate was prepared with working solution I and working solution II, and the specific process will not be repeated here.
(§6) (2) The culture medium of the bacterial solution: Cation-Adjusted Mueller-Hinton Broth (CAMHB), a product of BBL, USA, batch number 9015952.
(§7) (3) Formulation method of bacterial solution: According to the direct colony suspension method, the test bacteria cultured overnight were prepared into a 0.5 McFarland turbidity tube using physiological saline. Then, the resulting solution was dilute 100 times with the above culture medium. 100 μL of the resulting bacterial solution was mixed well with the solution (100 μL) in each well of the drug sensitivity plate, and the final inoculation amount was 10^5 CFU/mL.
(§8) (4) Culture conditions: Culturing at 35±2° C. for 20 hours in air.
(§9) (1) The experimental results were determined according to the standard of CLSI 2019 M100 29th edition.
(§10) wherein: FIC≤0.5 indicates synergistic effect; 0.5<FIC≤1.0 indicates additive effect; 1<FIC≤2.0 indicates irrelevant effect; and FIC>2 indicates antagonistic effect.

[2] = system: drug-resistant Escherichia coli II (drug-resistant Escherichia coli 1864); assay: as above; format: cell-based; settings: strain 1864
From the text: as §1
1 strain of drug-resistant Escherichia coli II, namely drug-resistant Escherichia coli 1864, is provided by the School of Pharmacy of Fudan University. This strain is resistant to fluoroquinolone antibiotics (such as levofloxacin), non-fluoroquinolone antibiotics (such as nalidixic acid, nemofloxacin), aminoglycoside antibiotics (such as gentamicin), glycopeptide antibiotics (such as vancomycin) and carbapenem antibiotics (such as meropenem).
as §2, §3, §4, §5, §6, §7, §8, §9, §10

**Q.** How did the MIC ([1]; strain 18-W09-093) turn out when `C[C@@H](O)[C@H]1C(=O)N2C(C(=O)O)=C(S[C@@H]3CN[C@H](C(=O)N(C)C)C3)[C@H](C)[C@H]12` [Meropenem, reference compound] was run?
**A.** 256 µg/mL

**Q.** What about the MIC ([1]; strain 18-W37-025) of the same molecule?
**A.** 128 µg/mL

**Q.** What about the MIC ([1]; strain 18-W37-032) of the same molecule?
**A.** 128 µg/mL

**Q.** What about the “Meropenem MIC in combination” value ([1]; strain 18-W09-093) of the same molecule?
**A.** 2 µg/mL

**Q.** And the “Meropenem MIC in combination” value ([1]; strain 18-W37-025)?
**A.** 1 µg/mL

**Q.** And the “Meropenem MIC in combination” value ([1]; strain 18-W37-032)?
**A.** 4 µg/mL

**Q.** What about the MIC ([2]; Escherichia coli, read-out: Meropenem MIC alone) of the same molecule?
**A.** 128 µg/mL

**Q.** And the “Meropenem MIC in combination” value ([2]; with compound A)?
**A.** 2 µg/mL
